Measured values: patent US9193722B2, “Tri-cyclic pyrazolopyridine kinase inhibitors” (Vertex Pharmaceuticals Incorporated, priority 2008, dated 2015)

What was measured:
Format in all cases: biochemical
PKC theta kinase = PKC theta kinase (Homo sapiens, UniProt Q04759); assay: PKC theta kinase inhibition, coupled-enzyme (NADH absorbance) assay, Ki; conditions: 240 μM ATP, 18 nM PKC theta kinase, 30° C.
Experimental: An assay buffer solution was prepared which consisted of 100 mM HEPES (pH 7.5), 10 mM MgCl2, 25 mM NaCl, 0.1 mM EDTA and 0.01% Brij. […] To 60 μL of this enzyme buffer, in a 384 well plate, was added 2 μL of VRT stock solution in DMSO. The mixture was allowed to equilibrate for 10 mins at 30° C. […] Ki values were calculated from initial rate data by non-linear regression using the Prism software package (Prism 4.0a, Graphpad Software, San Diego, Calif.).

PKC delta kinase = PKC delta kinase (Homo sapiens, UniProt Q05655); assay: PKC delta kinase inhibition, coupled-enzyme (NADH absorbance) assay, Ki; conditions: 150 μM ATP, 46 nM PKC delta kinase, 30° C.; read-out: Ki PKC delta
Experimental: (§1) An assay buffer solution was prepared which consisted of 100 mM HEPES (pH 7.5), 10 mM MgCl2, 25 mM NaCl, 0.1 mM EDTA and 0.01% Brij. […] To 16 μL of this enzyme buffer, in a 384 well plate, was added 1 μL of VRT stock solution in DMSO. The mixture was allowed to equilibrate for 10 mins at 30° C. The enzyme reaction was initiated by the addition of 16 μL stock ATP solution prepared in assay buffer to a final assay concentration of 150 μM. Initial rate data was determined from the rate of change of absorbance at 340 nm (corresponding to stoichiometric consumption of NADH) using a Molecular Devices Spectramax plate reader (Sunnyvale, Calif.) over 15 mins at 30° C. […] Ki values were calculated from initial rate data by non-linear regression using the Prism software package (Prism 4.0a, Graphpad Software, San Diego, Calif.).

PKC alpha kinase = PKC alpha kinase (Homo sapiens, UniProt P17252); assay: PKC alpha kinase inhibition, coupled-enzyme (NADH absorbance) assay, Ki; conditions: 130 μM ATP, 4.5 nM PKC alpha kinase, 30° C.
Experimental: as §1, with “EDTA, 100 μM CaCl2” for “EDTA”, “130” for “150”

PKC delta kinase, sequence (Q05655 whole entry): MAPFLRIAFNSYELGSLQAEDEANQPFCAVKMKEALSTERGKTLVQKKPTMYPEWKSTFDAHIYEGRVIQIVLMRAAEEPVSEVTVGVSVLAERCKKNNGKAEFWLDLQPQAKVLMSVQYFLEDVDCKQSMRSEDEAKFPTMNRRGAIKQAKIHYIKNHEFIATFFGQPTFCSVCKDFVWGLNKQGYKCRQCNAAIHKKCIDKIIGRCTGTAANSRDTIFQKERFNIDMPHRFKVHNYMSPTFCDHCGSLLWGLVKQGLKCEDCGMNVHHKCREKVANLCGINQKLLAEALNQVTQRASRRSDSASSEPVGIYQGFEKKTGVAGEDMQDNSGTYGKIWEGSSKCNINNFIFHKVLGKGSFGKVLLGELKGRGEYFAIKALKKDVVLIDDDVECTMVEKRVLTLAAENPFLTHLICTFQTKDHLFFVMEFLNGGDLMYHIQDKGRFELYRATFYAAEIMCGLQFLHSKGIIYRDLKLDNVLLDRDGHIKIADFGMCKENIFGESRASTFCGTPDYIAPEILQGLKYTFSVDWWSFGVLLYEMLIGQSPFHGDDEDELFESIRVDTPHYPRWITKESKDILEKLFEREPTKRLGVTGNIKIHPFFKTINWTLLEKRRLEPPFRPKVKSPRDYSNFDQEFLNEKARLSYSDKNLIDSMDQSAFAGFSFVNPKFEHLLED
PKC theta kinase, sequence (Q04759 whole entry): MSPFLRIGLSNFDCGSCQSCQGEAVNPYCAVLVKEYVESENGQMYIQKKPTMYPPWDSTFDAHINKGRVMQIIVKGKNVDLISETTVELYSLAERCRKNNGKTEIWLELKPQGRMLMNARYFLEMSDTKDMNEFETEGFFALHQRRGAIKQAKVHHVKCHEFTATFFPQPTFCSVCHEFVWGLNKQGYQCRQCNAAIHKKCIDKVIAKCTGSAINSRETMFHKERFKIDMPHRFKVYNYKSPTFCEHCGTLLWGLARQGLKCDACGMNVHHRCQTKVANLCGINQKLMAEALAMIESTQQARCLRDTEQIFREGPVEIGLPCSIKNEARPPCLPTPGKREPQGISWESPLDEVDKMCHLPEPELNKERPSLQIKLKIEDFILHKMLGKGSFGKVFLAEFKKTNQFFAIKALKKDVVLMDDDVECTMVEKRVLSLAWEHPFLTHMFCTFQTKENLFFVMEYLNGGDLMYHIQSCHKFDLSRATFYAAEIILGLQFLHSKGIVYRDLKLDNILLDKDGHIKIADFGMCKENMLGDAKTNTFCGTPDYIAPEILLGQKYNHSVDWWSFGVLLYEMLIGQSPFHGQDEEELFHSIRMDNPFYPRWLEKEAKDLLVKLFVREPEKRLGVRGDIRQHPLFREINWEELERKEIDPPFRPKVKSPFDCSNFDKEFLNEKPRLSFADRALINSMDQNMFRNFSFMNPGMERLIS

SMILES | Ki (PKC theta kinase) | Ki (PKC delta kinase) | Ki (PKC alpha kinase)
CC(C)C[C@H]1CN(c2ccnc(-c3n[nH]c4ncccc34)n2)CCN1 [Compound 66] | < 500 nM | < 2800 nM | > 1250 nM
CC(C)C[C@H]1CN(c2cccc(-c3n[nH]c4ncccc34)n2)CC[C@H]1O [Compound 144] | < 50 nM | < 2800 nM | > 1250 nM
CC(C)(O)CC1CN(c2cccc(-c3n[nH]c4ncccc34)n2)CCN1 (stereo not drawn) [Compound 36] | < 50 nM | < 500 nM | < 2800 nM
FC(F)(F)c1ccc(N2CC3CCC(C2)N3)nc1-c1n[nH]c2ncccc12 [Compound 120] | < 500 nM | < 2800 nM | > 1250 nM
CC(C)C[C@H]1CN(c2ccc(C(F)(F)F)c(-c3n[nH]c4ncc(F)cc34)n2)CCN1 [Compound 44] | < 50 nM | < 2800 nM | < 2800 nM
Fc1cnc2[nH]nc(-c3nc(N4CCNCC4)ccc3C(F)(F)F)c2c1 [Compound 45] | < 500 nM | > 2000 nM | > 1250 nM
O=C1CNCCN1c1cccc(-c2n[nH]c3ncccc23)n1 [Compound 166] | > 700 nM | > 1250 nM | > 1250 nM
CC(C)C[C@@]1(F)CN(c2ccc(F)c(-c3n[nH]c4ncccc34)n2)CC[C@H]1O [Compound 199] | < 500 nM | > 1250 nM | > 1250 nM
CC(C)C[C@H]1CN(c2cccc(-c3n[nH]c4ncccc34)n2)CC[C@@H]1O [Compound 145] | < 500 nM | > 1250 nM | > 1250 nM
CC(C)C[C@H]1CN(c2ccc(F)c(-c3n[nH]c4ncccc34)n2)C[C@@H](C)N1 [Compound 183] | < 50 nM | < 500 nM | < 2800 nM
C[C@@H]1CNCCN1c1cccc(-c2n[nH]c3ncccc23)n1 [Compound 31] | < 500 nM | < 2800 nM | > 1250 nM
Fc1ccc(N2CCN[C@@H](CC3CC3)C2)nc1-c1n[nH]c2ncccc12 [Compound 163] | < 50 nM | > 1250 nM | > 1250 nM
NCC1CCCN(c2cccc(-c3n[nH]c4ncccc34)n2)C1 (stereo not drawn) [Compound 74] | < 500 nM | < 500 nM | < 2800 nM
C=C(F)c1cc(-c2n[nH]c3ncccc23)nc(N2CCC(N)CC2)c1 [Compound 106] | < 500 nM | > 1250 nM | > 1250 nM
CC(C)C[C@@]1(O)CN(c2ccc(C(F)(F)F)c(-c3n[nH]c4ncccc34)n2)CC[C@H]1N [Compound 195] | < 50 nM | < 500 nM | < 500 nM
FC(F)(F)c1ccc(N2CCNC(c3ccccc3)C2)nc1-c1n[nH]c2ncccc12 (stereo not drawn) [Compound 5] | < 50 nM | > 2000 nM | > 1250 nM
Cc1ccc(C2CN(c3cccc(-c4n[nH]c5ncccc45)n3)CCN2)cc1 (stereo not drawn) [Compound 17] | < 500 nM | > 2000 nM | < 2800 nM
Clc1ccc(N2CCNCC2)nc1-c1n[nH]c2ncccc12 [Compound 48] | < 500 nM | < 2800 nM | < 2800 nM
C[C@H]1CNCCN1c1cccc(-c2n[nH]c3ncccc23)n1 [Compound 30] | < 50 nM | < 500 nM | < 500 nM
FC(F)(F)c1cc(-c2n[nH]c3ncccc23)nc(N2CCNCC2)c1 [Compound 94] | > 700 nM | > 2000 nM | > 1250 nM
C=Cc1ccc(N2CCNCC2)nc1-c1n[nH]c2ncccc12 [Compound 52] | < 500 nM | < 2800 nM | > 1250 nM
CC(C)(C)[C@H]1CN(c2cccc(-c3n[nH]c4ncccc34)n2)CCN1 [Compound 76] | < 50 nM | < 500 nM | < 2800 nM

Second part, the compound after the results:

Ki (PKC theta kinase) | Ki (PKC delta kinase) | Ki (PKC alpha kinase) | SMILES
> 700 nM | > 1250 nM | > 1250 nM | Fc1ccc(N2CCCCC2)nc1-c1n[nH]c2ncccc12 [Compound 266]
> 700 nM | > 1250 nM | > 1250 nM | CC(C)CC1(C#N)CN(c2ccc(F)c(-c3n[nH]c4ncccc34)n2)C1 [Compound 456]
> 700 nM | > 1250 nM | > 1250 nM | NC[C@@H]1CCN(c2ccc(C(F)(F)F)c(-c3n[nH]c4ncccc34)n2)C1 [Compound 353]
> 700 nM | > 1250 nM | > 1250 nM | CS(=O)(=O)NCC1CCCN(c2ccc(C(F)(F)F)c(-c3n[nH]c4ncccc34)n2)C1 (stereo not drawn) [Compound 372]
> 700 nM | > 1250 nM | > 1250 nM | NC(=O)C1(N2CCCCC2)CCN(c2ccc(C(F)(F)F)c(-c3n[nH]c4ncccc34)n2)CC1 [Compound 259]
< 50 nM | < 500 nM | < 2800 nM | CC(C)C[C@H]1CN(c2cc(CO)cc(-c3n[nH]c4ncccc34)n2)CCN1 [Compound 451]
< 50 nM | > 1250 nM | > 1250 nM | CC(C)(C)CC(N)C1CCCN(c2ccc(F)c(-c3n[nH]c4ncccc34)n2)C1 (stereo not drawn) [Compound 317]
> 700 nM | > 1250 nM | > 1250 nM | NC(=O)C1(N)CCN(c2ccc(C(F)(F)F)c(-c3n[nH]c4ncccc34)n2)CC1 [Compound 398]
> 700 nM | > 1250 nM | > 1250 nM | NCCC1CCCN(c2ccc(F)c(-c3n[nH]c4ncccc34)n2)C1 (stereo not drawn) [Compound 304]
< 500 nM | > 1250 nM | > 1250 nM | Fc1ccc(C2CCNCC2)nc1-c1n[nH]c2ncccc12 [Compound 440]
< 500 nM | > 1250 nM | > 1250 nM | CC(C)C[C@H]1CN(c2ccc(F)c(-c3n[nH]c4ncccc34)n2)CC[C@@H]1O [Compound 325]
< 50 nM | > 1250 nM | > 1250 nM | CC(C)C(N)[C@H]1CCCN(c2ccc(F)c(-c3n[nH]c4ncccc34)n2)C1 (stereo partly drawn) [Compound 270]
> 700 nM | > 1250 nM | > 1250 nM | CC1(N)CCCN(c2ccc(C(F)(F)F)c(-c3n[nH]c4ncccc34)n2)C1 (stereo not drawn) [Compound 319]
< 500 nM | > 1250 nM | > 1250 nM | NC(c1ccccc1)C1CCCN(c2ccc(F)c(-c3n[nH]c4ncccc34)n2)C1 (stereo not drawn) [Compound 301]
> 700 nM | > 1250 nM | > 1250 nM | CCNC(=O)C1CN(c2ccc(C(F)(F)F)c(-c3n[nH]c4ncccc34)n2)CCN1 (stereo not drawn) [Compound 216]
< 50 nM | < 500 nM | > 1250 nM | NCC1CCN(c2cc(CO)cc(-c3n[nH]c4ncccc34)n2)CC1 [Compound 453]
< 50 nM | < 500 nM | > 1250 nM | CC(F)(F)C(C)(O)C1CN(c2ccc(F)c(-c3n[nH]c4ncccc34)n2)CCN1 (stereo not drawn) [Compound 246]
< 1 nM | < 50 nM | < 500 nM | CC(C)C(C)(O)C1CN(c2nc(-c3n[nH]c4ncccc34)c(F)cc2F)CCN1 (stereo not drawn) [Compound 425]
< 500 nM | > 1250 nM | > 1250 nM | N#CCCC1CN(c2ccc(F)c(-c3n[nH]c4ncccc34)n2)CCC1O (stereo not drawn) [Compound 458]
> 700 nM | > 1250 nM | > 1250 nM | CN(C)CC1CCCN(c2ccc(F)c(-c3n[nH]c4ncccc34)n2)C1 (stereo not drawn) [Compound 305]
< 1 nM | < 500 nM | > 1250 nM | CC1(C)CC1(O)C1CN(c2ccc(F)c(-c3n[nH]c4ncccc34)n2)CCN1 (stereo not drawn) [Compound 288]
< 1 nM | < 10 nM | < 2800 nM | CC(F)(F)C(C)(O)C1CN(c2ccc(F)c(-c3n[nH]c4ncccc34)n2)CCN1 (stereo not drawn) [Compound 287]
> 700 nM | > 1250 nM | > 1250 nM | CC(=O)NCC1CCCN(c2ccc(F)c(-c3n[nH]c4ncccc34)n2)C1 (stereo not drawn) [Compound 303]
< 500 nM | > 1250 nM | > 1250 nM | CC(C)(C(N)C1CCCN(c2ccc(F)c(-c3n[nH]c4ncccc34)n2)C1)C(F)(F)F (stereo not drawn) [Compound 394]
> 700 nM | > 1250 nM | > 1250 nM | CC(C)CC1CCCN(c2ccc(F)c(-c3n[nH]c4ncccc34)n2)C1 (stereo not drawn) [Compound 334]
< 50 nM | < 500 nM | < 500 nM | CCCC1(C)CN(c2ccc(C(F)(F)F)c(-c3n[nH]c4ncccc34)n2)CCC1N (stereo not drawn) [Compound 435]
< 500 nM | < 500 nM | < 2800 nM | CC(C)(N)C1CCCN(c2ccc(F)c(-c3n[nH]c4ncccc34)n2)C1 (stereo not drawn) [Compound 310]
